According to ChEMBL document CHEMBL1201862, “PubChem BioAssay data set” (2004):
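Tested at 5 concentrations; 48 h exposure; 96-well plates; endpoints linearly interpolated, else capped at highest concentration. GI50: concentration for 50% inhibition of growth.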 The source made the active and inactive calls. Cut-off read from the data, not from the text of the source: active = GI50 up to about 1.1 µM and inactive = higher.

Tests used:
Test in all cases: NCI-60 cell line screen, 48 h
[1] = tested on: K562
[2] = tested on: RXF 393
[3] = tested on: HOP-62
[4] = tested on: CCRF-CEM
[5] = tested on: UO-31
[6] = tested on: SK-MEL-28
[7] = tested on: SK-MEL-2
[8] = tested on: Malme-3M
[9] = tested on: TK-10
[10] = tested on: SF-539
[11] = tested on: NCI-H226
[12] = tested on: OVCAR-8
[13] = tested on: KM-20L2
[14] = tested on: DMS-273
[15] = tested on: ACHN
[16] = tested on: HCT-116
[17] = tested on: OVCAR-5
[18] = tested on: HL-60
[19] = tested on: NCI-H522
[20] = tested on: SW-620
[21] = tested on: COLO 205
[22] = tested on: M14
[23] = tested on: DMS-114
[24] = tested on: OVCAR-3
[25] = tested on: NCI-H23
[26] = tested on: SF-268
[27] = tested on: SF-295
[28] = tested on: IGROV-1
[29] = tested on: LOX IMVI
[30] = tested on: NCI-H460
[31] = tested on: SR
[32] = tested on: XF498
[33] = tested on: HT-29
[34] = tested on: RPMI-8226
[35] = tested on: EKVX
[36] = tested on: 786-0
[37] = tested on: UACC-62
[38] = tested on: LXFL 529
[39] = tested on: M19-MEL
[40] = tested on: KM12
[41] = tested on: MOLT-4
[42] = tested on: SNB-75
[43] = tested on: SNB-19
[44] = tested on: A549
[45] = tested on: OVCAR-4
[46] = tested on: HCT-15
[47] = tested on: SNB-78
[48] = tested on: SK-MEL-5
[49] = tested on: SN12C
[50] = tested on: HCC 2998
[51] = tested on: Hs-578T
[52] = tested on: HOP-92
[53] = tested on: T47D
[54] = tested on: PC-3
[55] = tested on: MDA-MB-231
[56] = tested on: UACC-257
[57] = tested on: MDA-N
[58] = tested on: A498
[59] = tested on: U-251
[60] = tested on: DU-145
[61] = tested on: CAKI-1
[62] = tested on: NCI/ADR-RES
[63] = tested on: MDA-MB-435
[64] = tested on: MCF7
[65] = tested on: DLD-1
[66] = tested on: BT-549
[67] = tested on: SK-OV-3

Nc1nc(-c2ccco2)cc(-c2ccc(CO)o2)n1
GI50 [1]: > 100 µM (inactive) | GI50 [2]: > 100 µM (inactive) | GI50 [3]: > 100 µM (inactive) | GI50 [4]: 76.4 µM (inactive) | GI50 [5]: 60.3 µM (inactive) | GI50 [6]: > 100 µM (inactive) | GI50 [7]: > 100 µM (inactive) | GI50 [8]: > 100 µM (inactive) | GI50 [9]: > 100 µM (inactive) | GI50 [10]: > 100 µM (inactive) | GI50 [11]: 54.3 µM (inactive) | GI50 [12]: > 100 µM (inactive) | GI50 [13]: > 100 µM (inactive) | GI50 [14]: > 100 µM (inactive) | GI50 [15]: > 100 µM (inactive) | GI50 [16]: > 100 µM (inactive) | GI50 [17]: > 100 µM (inactive) | GI50 [18]: > 100 µM (inactive) | GI50 [19]: 85.5 µM (inactive) | GI50 [20]: > 100 µM (inactive) | GI50 [21]: > 100 µM (inactive) | GI50 [22]: > 100 µM (inactive) | GI50 [23]: > 100 µM (inactive) | GI50 [24]: > 100 µM (inactive) | GI50 [25]: > 100 µM (inactive) | GI50 [26]: > 100 µM (inactive) | GI50 [27]: > 100 µM (inactive) | GI50 [28]: > 100 µM (inactive) | GI50 [29]: > 100 µM (inactive) | GI50 [30]: > 100 µM (inactive) | GI50 [31]: > 100 µM (inactive) | GI50 [32]: > 100 µM (inactive) | GI50 [33]: > 100 µM (inactive) | GI50 [34]: 41.4 µM (inactive) | GI50 [35]: > 100 µM (inactive) | GI50 [36]: > 100 µM (inactive) | GI50 [37]: > 100 µM (inactive) | GI50 [38]: > 100 µM (inactive) | GI50 [39]: > 100 µM (inactive) | GI50 [40]: > 100 µM (inactive) | GI50 [41]: > 100 µM (inactive) | GI50 [42]: 72.9 µM (inactive) | GI50 [43]: 65.5 µM (inactive) | GI50 [44]: > 100 µM (inactive) | GI50 [45]: > 100 µM (inactive) | GI50 [46]: > 100 µM | GI50 [47]: > 100 µM (inactive) | GI50 [48]: > 100 µM (inactive) | GI50 [49]: > 100 µM (inactive)

CNC(=O)NC(CCCCNC(=O)OCc1ccccc1)C(=O)OCc1ccccc1 (stereo not drawn)
GI50 [1]: 31.3 µM (inactive) | GI50 [2]: 27.9 µM (inactive) | GI50 [50]: 30.5 µM (inactive) | GI50 [3]: > 100 µM (inactive) | GI50 [4]: 14.7 µM (inactive) | GI50 [5]: 47.3 µM (inactive) | GI50 [6]: 19.8 µM (inactive) | GI50 [7]: 17.8 µM (inactive) | GI50 [51]: 79.8 µM (inactive) | GI50 [8]: 27 µM (inactive) | GI50 [52]: 16.6 µM (inactive) | GI50 [9]: 38.3 µM (inactive) | GI50 [10]: 30.3 µM (inactive) | GI50 [11]: 42.9 µM (inactive) | GI50 [53]: 28.1 µM (inactive) | GI50 [12]: 61.4 µM (inactive) | GI50 [13]: > 100 µM (inactive) | GI50 [14]: 35.9 µM (inactive) | GI50 [54]: 45.1 µM (inactive) | GI50 [15]: 41.9 µM (inactive) | GI50 [16]: 81.8 µM (inactive) | GI50 [55]: > 42.9 µM (inactive) | GI50 [56]: 16.9 µM (inactive) | GI50 [17]: > 61.4 µM (inactive) | GI50 [18]: 26.2 µM (inactive) | GI50 [19]: 12.6 µM (inactive) | GI50 [57]: 19.5 µM (inactive) | GI50 [20]: > 97.5 µM (inactive) | GI50 [21]: 16.3 µM (inactive) | GI50 [22]: 19.5 µM (inactive) | GI50 [23]: 28.1 µM (inactive) | GI50 [24]: 21.1 µM (inactive) | GI50 [25]: 47.6 µM (inactive) | GI50 [26]: 57.3 µM (inactive) | GI50 [27]: 60.8 µM (inactive) | GI50 [58]: 20.3 µM (inactive) | GI50 [28]: > 100 µM (inactive) | GI50 [59]: 65.9 µM (inactive) | GI50 [29]: 34.3 µM (inactive) | GI50 [60]: > 100 µM (inactive) | GI50 [30]: > 100 µM (inactive) | GI50 [31]: 19.9 µM (inactive) | GI50 [32]: 15.2 µM (inactive) | GI50 [33]: > 100 µM (inactive) | GI50 [34]: 24.9 µM (inactive) | GI50 [61]: 47.6 µM (inactive) | GI50 [62]: > 100 µM (inactive) | GI50 [35]: 59.8 µM (inactive) | GI50 [36]: 80.2 µM (inactive) | GI50 [37]: 16.7 µM (inactive) | GI50 [38]: 33.9 µM (inactive) | GI50 [63]: 19.6 µM (inactive) | GI50 [64]: 53 µM (inactive) | GI50 [39]: 17 µM (inactive) | GI50 [40]: > 100 µM (inactive) | GI50 [41]: 19 µM (inactive) | GI50 [65]: > 100 µM (inactive) | GI50 [42]: 5.69 µM (inactive) | GI50 [43]: > 100 µM (inactive) | GI50 [66]: > 78.2 µM (inactive) | GI50 [44]: > 82 µM (inactive) | GI50 [45]: 76.4 µM (inactive) | GI50 [46]: > 96.8 µM | GI50 [47]: 33.4 µM (inactive) | GI50 [48]: 15.9 µM (inactive) | GI50 [67]: > 100 µM (inactive) | GI50 [49]: 39.5 µM (inactive)

C#CCN(N=O)C(=O)NC(CCCNC(=O)OCc1ccccc1)C(=O)OCc1ccccc1 (stereo not drawn)
GI50 [1]: 61.9 µM (inactive) | GI50 [2]: 22.6 µM (inactive) | GI50 [50]: > 100 µM (inactive) | GI50 [3]: > 100 µM (inactive) | GI50 [4]: 22.8 µM (inactive) | GI50 [5]: > 100 µM (inactive) | GI50 [6]: 24.9 µM (inactive) | GI50 [7]: > 100 µM (inactive) | GI50 [8]: > 100 µM (inactive) | GI50 [52]: 30.9 µM (inactive) | GI50 [9]: > 100 µM (inactive) | GI50 [10]: 75.7 µM (inactive) | GI50 [11]: > 100 µM (inactive) | GI50 [12]: 43.4 µM (inactive) | GI50 [13]: > 100 µM (inactive) | GI50 [14]: > 100 µM (inactive) | GI50 [15]: > 100 µM (inactive) | GI50 [16]: > 100 µM (inactive) | GI50 [56]: 77.1 µM (inactive) | GI50 [17]: > 100 µM (inactive) | GI50 [18]: 20.1 µM (inactive) | GI50 [19]: 13.2 µM (inactive) | GI50 [20]: 55.8 µM (inactive) | GI50 [21]: 91.2 µM (inactive) | GI50 [22]: > 100 µM (inactive) | GI50 [23]: 67.3 µM (inactive) | GI50 [24]: > 100 µM (inactive) | GI50 [25]: > 100 µM (inactive) | GI50 [26]: 18.2 µM (inactive) | GI50 [27]: > 100 µM (inactive) | GI50 [58]: > 100 µM (inactive) | GI50 [28]: > 100 µM (inactive) | GI50 [59]: > 100 µM (inactive) | GI50 [29]: 52.4 µM (inactive) | GI50 [30]: > 100 µM (inactive) | GI50 [31]: 34.8 µM (inactive) | GI50 [32]: 18 µM (inactive) | GI50 [33]: > 100 µM (inactive) | GI50 [34]: 63.2 µM (inactive) | GI50 [61]: 28.1 µM (inactive) | GI50 [35]: > 100 µM (inactive) | GI50 [36]: > 100 µM (inactive) | GI50 [37]: > 100 µM (inactive) | GI50 [38]: 72.9 µM (inactive) | GI50 [39]: > 100 µM (inactive) | GI50 [40]: > 100 µM (inactive) | GI50 [41]: 24.8 µM (inactive) | GI50 [65]: 57.1 µM (inactive) | GI50 [42]: > 100 µM (inactive) | GI50 [43]: > 100 µM (inactive) | GI50 [44]: > 100 µM (inactive) | GI50 [45]: > 100 µM (inactive) | GI50 [46]: 76.4 µM | GI50 [47]: > 100 µM (inactive) | GI50 [48]: > 100 µM (inactive) | GI50 [67]: > 100 µM (inactive) | GI50 [49]: > 100 µM (inactive)
